# According to US20150359668A1, “LIGHT DELIVERY DEVICE AND RELATED COMPOSITIONS, METHODS AND SYSTEMS” (CALIFORNIA INSTITUTE OF TECHNOLOGY, priority 2011, published 2015):
# “And” between values parts separate entries of the source, which are not always exact repeats. Identical values can stand only once. Like-named read-outs stand apart in the source and are kept apart here.
# Assays:
# [1] = reaction with singlet oxygen; cited from earlier work
# posterior globe = conditions: rabbit, in vivo; cited from earlier work
# keratocytes = conditions: human, in vivo; cited from earlier work
# collagen gel = collagen gel photorheology: storage modulus during photo-activated cross-linking; conditions: for cross-linking rate as % of the rate without singlet oxygen quenchers: in air; for modulus change during the last 10 minutes, no irradiation / ΔG′ over the 30-minute period without irradiation: 0.02% eosin Y or 0.1% riboflavin, 0 mW/cm^2; for modulus change during the 10 minutes after cessation of irradiation / change of storage modulus ΔG′ over the 30-minute irradiation: 0.02% eosin Y, 0.1% riboflavin; for modulus change during the 10 minutes after cessation of irradiation: 6 mW/cm^2, 3 mW/cm^2; for change of storage modulus ΔG′ over the 30-minute irradiation: 6 mW/cm^2 at 530±15 nm, 3 mW/cm^2 at 370±12 nm
# sclera [2] = assay: drug diffusion into the sclera of intact eyes (extraction assay, diffusion model fit); conditions: for diffusivity, D / partition coefficient, k: from DPBS
# From the text: Orbital tissues were removed with scissors to expose the sclera. […] After the contact time, the eye was removed from the drug solution, and excess solution on the sclera was dabbed away with a Kimwipe. The eye was dissected using a scalpel blade and a pair of scissors to obtain a posterior scleral section on the temporal side near the optic nerve. The tissue section was placed onto a trephine punch to cut out a 9.5-mm diameter cross-section.
# (§1) Quantitative assay of the amount of drug delivered—Experiments were performed for five drug contact times (four samples each): for the cornea, tc,cornea=0.25, 0.5, 1, 2, and 4 hrs, and for the sclera, tc,sclera=0.5, 2, 4, 7.5, and 120 hrs. Each experiment was repeated four times. For each experiment, the 9.5-mm diameter tissue cross-section obtained as described above was placed into a 50 mL centrifuge tube and immersed in 50 mL of extractant (doubled-distilled water for cornea or DPBS for sclera) then placed on a rocker to extract the drug molecules (FIG. 40). […] After a first extraction time te,1 of 8 hours, the tissue specimen was then transferred into another 50 mL of fresh extractant and the extract was retained for analysis.
# (§2) The concentration of the drug in the extract was determined using fluorimetry. […] The fluorescence of each extract was measured and concentration was determined based on calibration curves prepared for each compound using a series of solutions with known concentrations. The extraction process was repeated using successively longer extraction times until there was no detectable fluorescence in the supernatant.
# (§3) Porcine eyes closely resemble a sphere with diameter ˜25 mm. The cornea and sclera are the targeted tissues and both have thicknesses that are on the order of 1 mm. Since these tissue thicknesses are less than a tenth of the diameter of the eye, they are modeled as semi-infinite slabs. Each tissue is approximated as a uniform material. Fick's diffusion equation is given by
# (§4) where C(z,t) is the drug concentration inside the tissue, t is the time since the exterior surface of the tissue was placed in contact with the drug solution, z is the distance into the tissue from its exterior surface, and D is the diffusion coefficient. […] For short contact times, the concentration falls to zero before the profile reaches the endothelium. For longer contact times, the boundary condition that the concentration falls to zero far into the system is still used as a first approximation (neglecting the change in material properties at the endothelium and neglects different transport processes in the aqueous or vitreous).
# (§5) where area represents the cross-sectional area of the tissue sample and L is the thickness of the tissue sample. At long drug contact time, the predicted concentration changes very slowly and approaches a value governed by the partition coefficient.
# (§6) with i being the individual data point and N being the total data points used for the fit. Data fitting was performed by writing a program in MATLAB software.
# cornea [3] = conditions: sodium azide added to the riboflavin treatment solution; cited from earlier work
# [4] = physiological pH; cited from earlier work
# cornea [5] = assay: drug diffusion into the cornea of intact eyes (extraction assay, diffusion model fit); conditions: for diffusivity, D / partition coefficient, k: from DPBS
# Description: Siena for Medical Science supplied porcine eyes from 3-4 month old swine. Eyes were stored in ocular balanced saline solution on ice until use within 48 hours post mortem. […] The epithelial cell layer was removed by scraping with a scalpel. […] The drug solution containing the eye was gently agitated using a rocker for a specified “drug contact time” (tc,cornea ranging from 0 to 4 hours). After the drug contact time, the eye was removed from the drug solution, and excess solution on the cornea was dabbed away with a Kimwipe. The eye was dissected using a scalpel blade and a pair of scissors to cut around the corneoscleral limbus to separate out the cornea. The tissue section was placed onto a trephine punch to cut out a 9.5-mm diameter corneal cross-section.
# as §1, §2, §3, §4, §5, §6
# cornea [6] = conditions: fluorescein value used for riboflavin in earlier studies; cited from earlier work
# sclera [7] = conditions: subconjunctival delivery; cited from earlier work
# sclera [8] = conditions: cited from earlier work
# cornea [9] = assay: model of photodynamic collagen cross-linking profile in the cornea
# From the text: Design of experiments—The collagen gel photorheological technique discussed in Examples 29-31 was used to gather collagen cross-linking rate data in order to model the extent and distribution of cross-link formation in the tissue. Collagen gel samples have uniform drug concentration profiles based on the preparation technique developed Examples 29-31. The protocols for collagen gel preparation and photorheological measurement are described in the Methods Section of Example 29-31. The pairs of drug concentrations and collagen gel thicknesses were selected such that the intensity profile is approximately uniform throughout the sample. Based on light intensity calculations, this is achieved when the ratio of light penetration depth over sample thickness is 1.2. The light intensity profile in the sample is given by:
# Design of the model—Photodynamic collagen cross-linking depends on both the local photosensitizer concentration and the light intensity which are functions of treatment parameters: drug concentration, contact time (duration the drug is in contact with the tissue), delay time (period between end of contact time and beginning of irradiation), and irradiation time (FIGS. 46A-46C). […] The concentration profile can be calculated using Fick's diffusion equation. The light intensity also varies along the tissue as determined by Beer's law. […]
# guinea pig eyes = assay: guinea pig form-deprivation myopia and normal ocular growth after subconjunctival treatment; conditions: Set A, eyes enucleated immediately after treatment
# cell viability = conditions: cited from earlier work
# [10] = in the absence of oxygen (in argon), 30-minute irradiation
# [11] = in the presence of oxygen (in air), 30-minute irradiation, 0.05% riboflavin 370 nm or 0.02% eosin Y 530 nm
molecule,measurement,setting,value
N[C@@H](Cc1c[nH]cn1)C(=O)O [Histidine],k1O2 × 10^−7 M^−1s^−1,[1],3.2-3.4 × 10^−7 M^−1s^−1
N[C@@H](Cc1c[nH]c2ccccc12)C(=O)O [Tryptophan],k1O2 × 10^−7 M^−1s^−1,[1],1.3-3 × 10^−7 M^−1s^−1
riboflavin-5′-monophosphate [reference compound],side-effects in the posterior globe,posterior globe,"almost complete loss of the photoreceptors, the outer nuclear layer and the retinal pigment epithelium (RPE)"
same,anterior stromal depth in which almost all keratocytes undergo apoptosis,keratocytes,300-350 μm
same,time to full recovery of the keratocyte population,keratocytes,6-12 months
same,cross-linking rate as % of the rate without singlet oxygen quenchers,collagen gel; 10 mM sodium azide,12±20%
same,"modulus change during the last 10 minutes, no irradiation",collagen gel,32±36 Pa
same,ΔG′ over the 30-minute period without irradiation,collagen gel,72±136 Pa
same,modulus change during the 10 minutes after cessation of irradiation,collagen gel,70±19 Pa
same,change of storage modulus ΔG′ over the 30-minute irradiation,collagen gel,819±85 Pa
same,cross-linking rate as % of the rate without singlet oxygen quenchers,collagen gel; 20 mM ascorbic acid,−32±11%
same,cross-linking rate as % of the rate without singlet oxygen quenchers,collagen gel; 100 mM sodium azide,−26±23%
same,cross-linking rate as % of the optimal rate (0.05% riboflavin),"collagen gel; 0.12% riboflavin concentration, by interpolation",approximately 78%
same,cross-linking in the absence of oxygen,collagen gel; in argon,no cross-linking occurred
same,"rate of change in storage modulus, Ġ′ (decreased by)",collagen gel; [10],4.8±2.3 Pa/min
same,"rate of change in storage modulus, Ġ′ (increased by)",collagen gel; [11],28.0±4.7 Pa/min
same,"diffusion coefficient without the binding effect, Dab",sclera [2],41 μm^2/s
same,drug in 3rd extract relative to the first extract,sclera [2],1-3%
same,drug in 4th extract relative to the first extract,sclera [2],≤ 1%
same,"drug in second extract, % of the first extract",sclera [2],3-6%
same,time for the concentration to level off,sclera [2],approximately 7.5 hours
same,decrease of cross-linking efficacy (destructive tension of corneal strips),cornea [3],76%
same,ionization in solution,[4],negatively ionized
same,"diffusion coefficient without the binding effect, Dab",cornea [5],134 μm^2/s
same,drug contact time at which delivered amount levels off,cornea [5],2 h
same,"drug in second extract, % of the first extract",cornea [5],1.6-2.5%
"N[C@@H](CS)C(=O)O [Cystei e, Cysteine]",k1O2 × 10^−7 M^−1s^−1,[1],0.89 × 10^−7 M^−1s^−1
O=C1OC2(c3ccc(O)cc3Oc3cc(O)ccc32)c2ccccc21 [fluorescein],"diffusion coefficient, D",cornea [6],65 μm^2/s
CO[C@@]12[C@H](COC(N)=O)C3=C(C(=O)C(C)=C(N)C3=O)N1C[C@@H]1N[C@@H]12 [mitomycin-C],fraction of drug present on the surface of sponges able to diffuse into the sclera,sclera [7],~5%
sulforhodamine,partition coefficient in the sclera,sclera [8],13.6
N[C@@H](Cc1ccc(O)cc1)C(=O)O [Tyrosine],k1O2 × 10^−7 M^−1s^−1,[1],0.8 × 10^−7 M^−1s^−1
"O=C([O-])c1ccccc1-c1c2cc(Br)c(=O)c(Br)c-2oc2c(Br)c([O-])c(Br)cc12.[Na+].[Na+] [Eosin Y, eosin Y]","characteristic time to penetrate the entire cornea, L^2/(4*D)",cornea [9],~15 min
same,cross-linking rate as % of the rate without singlet oxygen quenchers,collagen gel; 10 mM ascorbic acid,43±23%
same,"modulus change during the last 10 minutes, no irradiation",collagen gel,59±34 Pa
same,ΔG′ over the 30-minute period without irradiation,collagen gel,−23±76 Pa
same,modulus change during the 10 minutes after cessation of irradiation,collagen gel,61±136 Pa
same,change of storage modulus ΔG′ over the 30-minute irradiation,collagen gel,793±118 Pa
same,cross-linking rate as % of the rate without singlet oxygen quenchers,collagen gel; 20 mM ascorbic acid,23±10%
same,cross-linking rate as % of the rate without singlet oxygen quenchers,collagen gel; 100 mM ascorbic acid,−7±6%
same,cross-linking rate as % of the rate without singlet oxygen quenchers,collagen gel; 100 mM sodium azide,34±8%
same,cross-linking rate in the absence of oxygen (reduced to),collagen gel; argon vs air,12%
same,"rate of change in storage modulus, Ġ′ (increased by)",collagen gel; [10],3.4±2.3 Pa/min
same,"rate of change in storage modulus, Ġ′ (increased by)",collagen gel; [11],28.4±5.1 Pa/min
same,permeability,sclera [2]; sclera,0.099 μm/s
same,time for the concentration to level off,sclera [2]; sclera,approximately 30 hours
same,"drug in second extract, % of the first extract","sclera [2]; sclera, 2 hours contact time",approximately 20%
same,"diffusivity, D",sclera [2]; sclera,6.2 ± 1.7 μm^2/s and 6.2 μm^2/s
same,"partition coefficient, k",sclera [2]; sclera,13.0±1.1 and 13.0
same,"diffusivity, D","sclera [2]; sclera, listed as eosin Y",6.2 μm^2/s
same,"partition coefficient, k","sclera [2]; sclera, listed as eosin Y",13
same,"diffusion coefficient without the binding effect, Dab","sclera [2]; sclera, Dab=kD",81 μm^2/s
same,ionization in solution,[4],negatively ionized
same,distribution in the sclera after subconjunctival injection,guinea pig eyes,pink staining from Eosin Y over the entire sclera
same,drug contact time at which delivered amount levels off,cornea [5]; cornea,2 h
same,"diffusivity, D",cornea [5]; cornea,62 μm^2/s and 62 ± 22 μm^2/s
same,"partition coefficient, k",cornea [5]; cornea,4.3±0.7 and 4.3
same,"diffusivity, D","cornea [5]; cornea, listed as eosin Y",62 μm^2/s
same,"partition coefficient, k","cornea [5]; cornea, listed as eosin Y",4.3
same,"diffusion coefficient without the binding effect, Dab","cornea [5]; cornea, Dab=kD",267 μm^2/s
same,calculated permeability,cornea [5]; through porcine cornea,0.31 μm/s
same,concentration with excellent cell viability (up to),cell viability,up to 20 mM
CSCC[C@H](N)C(=O)O [Methionine],k1O2 × 10^−7 M^−1s^−1,[1],1.6 × 10^−7 M^−1s^−1
